Measurements reported in US20230015541A1, “16% Sodium Citrate Solution for Use as an Antimicrobial Catheter Lock Solution” (Becton, Dickinson and Company, priority 2021, published 2023).

Key:
[1] = test system: P. aeruginosa (Gram-negative bacteria); assay: Growth inhibition timeframe at various concentrations of sodium citrate; type: cell-based, Pseudomonas aeruginosa; details: through 24 hours; for growth of P. aeruginosa: pH 6.4-7.5
Protocol: FIG. 4 is a table showing growth inhibition timeframe of Gram-negative Pseudomonas aeruginosa exposed to various concentrations of sodium citrate.
(§1) In vitro testing was conducted with various concentrations of sodium citrate on S. aureus (Gram-positive bacteria) (FIG. 3), P. aeruginosa (Gram-negative bacteria) (FIG. 4), and yeast, C. albicans (FIG. 5). Testing was conducted as set forth in ‘Methods for Dilution Antimicrobial Susceptibility Tests for Bacteria That Grow Aerobically,’ 11th Edition, Clinical and Laboratory Standards Institute (2018), ‘Methods for Determining Bactericidal Activity of Antimicrobial Agents' Approved Guideline.’ Vol. 12, No. 9, Clinical and Laboratory Standards Institute (1999), and ‘Development of In Vitro Susceptibility Testing Criteria and Quality Control Parameters; Approved Guideline-Second Edition,’ Vol. 21, No. 7, Clinical and Laboratory Standards Institute (2001). Briefly, trisodium citrate salt was compounded using purified water and the pH was adjusted, if necessary, with hydrochloric acid to provide a composition with a pH between 6.4 and 7.5. […] Due to this, it is expected that growth inhibition and possibly eradication can occur beyond 24 hours.
Due to this, it is expected that growth inhibition and possibly eradication can occur beyond 24 hours.

whole human blood = assay: Anticoagulation effect in vitro as activated clotting time (ACT), Sonoclot analyzer; type: cell-based; details: 4% (w/v), versus controls (no solution and saline)
Protocol: The anticoagulation effect of a 4% sodium citrate lock solution was measured in vitro as activated clotting time (ACT) using whole human blood over 2 years. The anticoagulation effectiveness of 4% sodium citrate lock solution on whole blood was determined using the Sonoclot® Coagulation & Platelet Function Analyzer (Sienco Inc., Boulder Colo.), which can calculate the onset of clot formation by monitoring mechanical changes that occur in blood samples during hemostasis. The mechanism is a tubular probe that moves up and down within a blood sample. As the sample progresses through various stages of clotting, electronic circuitry (a transducer) detects increasing resistance. This produces a series of electronic signals that are processed by a microcomputer. The output is the total time of clot formation where the blood is more viscous than initially introduced.

yeast, C. albicans = assay: Growth inhibition timeframe at various concentrations of sodium citrate; type: cell-based, Candida albicans; details: through 24 hours, pH 6.4-7.5
Protocol: FIG. 5 is a table showing growth inhibition timeframe of the fungus Candida albicans exposed to various concentrations of sodium citrate.
as §1

[2] = test system: S. aureus (Gram-positive bacteria); assay: as above; type: cell-based, Staphylococcus aureus; details: through 24 hours; for growth of S. aureus: pH 6.4-7.5
Protocol: FIG. 3 is a table showing growth inhibition timeframe of Gram-positive Staphylococcus aureus exposed to various concentrations of sodium citrate.
as §1

Gram-negative bacteria = assay: MIC determination of sodium citrate by broth microdilution; type: cell-based; details: 16% w/v sodium citrate, pH 6.4-7.5; concluded from MICs of FIGS. 2A and 2B
Protocol: (§2) In vitro testing was conducted with sodium citrate on samples of various microorganisms to determine a minimum inhibitory concentration (MIC) of sodium citrate (at pH 6.4-7.5) for those microorganisms. […] Testing was performed as set forth in ‘Methods for Dilution Antimicrobial Susceptibility Tests for Bacteria That Grow Aerobically,’ 11th Edition, Clinical and Laboratory Standards Institute (2018), ‘Methods for Determining Bactericidal Activity of Antimicrobial Agents' Approved Guideline.’ Vol. 12, No. 9, Clinical and Laboratory Standards Institute (1999), and ‘Development of In Vitro Susceptibility Testing Criteria and Quality Control Parameters; Approved Guideline-Second Edition,’ Vol. 21, No. 7, Clinical and Laboratory Standards Institute (2001).
(§3) For MIC determinations, sodium citrate was reconstituted and diluted to various working stock concentrations (8%, 10%, 12%, 14%, 16%, 20%, 24%, and 28% in deionized water and transferred into round-bottom 96-well microdilution plates. Three strains each of Gram-positive bacteria, Gram-negative bacteria, and yeast were obtained from the American Tissue Type Collection (ATCC) or the Centers for Disease Control Antibiotic Resistant (CDC AR) Isolate Bank. Cultures were grown on Trypticase Soy Agar (TSA, for bacteria) or Sabouraud Dextrose Agar (SDA, for yeast) and suspended in Mueller Hinton Broth to a final cell density of approximately 5×10^5 CFU/mL during exposure to sodium citrate. Following incubation at 35±2° C. for 24±2 h (bacteria) or 44±4 h (yeast), microdilution plates were visually examined for the presence or inhibition of growth.
(§4) As will be appreciated, the MIC is shown, thus testing of higher concentrations was deemed unnecessary, because if, for example 4% sodium citrate is the MIC for a given microorganism, then 16% would be at least as effective. Three (3) replicates were run for each bacteria evaluated and four (4) replicates were run for each fungi evaluated, using two (2) different growth media for the fungi. […]

yeast = assay: as above; type: cell-based; details: 16% w/v sodium citrate, pH 6.4-7.5; concluded from MICs of FIGS. 2A and 2B
Protocol: as §2, §3, §4

Gram-positive bacteria = assay: as above; type: cell-based; details: 16% w/v sodium citrate, pH 6.4-7.5; concluded from MICs of FIGS. 2A and 2B
Protocol: as §2, §3, §4

O=C([O-])CC(O)(CC(=O)[O-])C(=O)[O-].[Na+].[Na+].[Na+] [sodium citrate, trisodium citrate]
bacteria count of P. aeruginosa ([1]; 10% (w/v)): decrease
growth of P. aeruginosa ([1]; 10% (w/v)): does not grow
bacteria count of P. aeruginosa ([1]; 12% (w/v)): decrease
growth of P. aeruginosa ([1]; 12% (w/v)): does not grow
bacteria count of P. aeruginosa ([1]; 14% (w/v)): decrease
growth of P. aeruginosa ([1]; 14% (w/v)): does not grow
time required for clot formation (activated clotting time) (whole human blood): longer relative to the controls
growth of C. albicans (yeast, C. albicans; 2% (w/v)): does not grow
growth of C. albicans (yeast, C. albicans; 4% (w/v)): does not grow
growth of C. albicans (yeast, C. albicans; 6% (w/v)): does not grow
bacteria count of S. aureus ([2]; 6% (w/v)): decrease
growth of S. aureus ([2]; 6% (w/v)): does not grow
bacteria count of S. aureus ([2]; 8% (w/v)): decrease
growth of S. aureus ([2]; 8% (w/v)): does not grow
bacteria count of S. aureus ([2]; 10% (w/v)): decrease
growth of S. aureus ([2]; 10% (w/v)): does not grow
growth and proliferation of Gram-negative bacteria (Gram-negative bacteria): will prevent growth and proliferation
growth and proliferation of yeast (yeast): will prevent growth and proliferation
growth and proliferation of Gram-positive bacteria (Gram-positive bacteria): will prevent growth and proliferation
